Data taken from patent US20250170252A1, “QUINONE PROTECTED FORMS AND CONJUGATES” (CAMBRIDGE ENTERPRISE LIMITED, priority 2022, published 2025).
Read-outs that look alike come from different tables or passages of the source.

What was measured:
[1] = tested on: Aspc-1 pancreatic cancer cell line; test: CellTiter Glo viability assay, Aspc-1; type: cell-based; conditions: for toxicity without the β-glucuronidase enzyme: Aspc-1, up to 100 μM; for IC50: Homo sapiens, ASPC1, 48 h
Protocol: (§1) For CellTiter Glo viability assays, 10,000 cells per well were plated on Day 1 and were allowed to adhere to the plate surface for 24 hours. Optimized concentration ranges of prodrugs were determined and made via serial dilution. […] Cells were incubated with compound for 48 hours and viability was assessed on Day 4 using the CellTiter Glo Viability assay which measures metabolically active cells by quantifying the amount of ATP present.
(§2) Panc-1 cells were obtained from Tony Kouzarides' lab in the Gurdon Institute at the University of Cambridge and put into culture at passage 10 containing DMEM media (Gibco) supplemented with 1% Pen-Strep antibiotic (Gibco), 1% L-glutamine, and 10% fetal bovine serum (FBS, sterile-filtered). Aspc-1 cells were bought commercially from the American Type Culture Collection (ATCC) and put into culture containing RPMI 1640 media (Gibco) supplemented with 1% Pen-Strep antibiotic (Gibco), 1% L-glutamine, and 20% fetal bovine serum (FBS, sterile-filtered). All cell lines were started at passage 10 and passaged every 3 days by centrifuging at 1000 rpm for 4 minutes.

[2] = Glucuronide kinetics assay (release of β-lapachone after β-glucuronide deprotection); type: physicochemical
Protocol: Glucuronide prodrug (37a, b, c, d) was dissolved in DMSO to a concentration of 10 mM. A 100 mM stock solution of warfarin in DMSO was also prepared. To obtain deprotected para-hydroxybenzyl ketol species, the glucuronide stock solution was dissolved in PBS with 16.7% DMF to a concentration of 1.7 mM. 15 μL of a stock solution of R-glucuronidase from E. coli K-12 (Roche #03707580001, 140 U/mL) was added to 900 μL of this stock and incubated for 20 min at 37° C. 15 μL of a 100 mM stock of warfarin internal standard in DMSO was added. Reactions were then set up immediately. For a reaction, 30 μL of the amino-benzyl ketol/standard stock was added to 195 μL of citrate-phosphate buffer at the specified pH. Test samples were incubated at 37° C. with shaking. At the recorded time points, 20 μL aliquots of the reactions were analysed by HPLC (254 nm, Agilent 1260 Infinity). HPLC conditions: column Agilent InfinityLab Poroshell 120 SB—C18 2.7 μm, 50×4.6 mm; solvent system A=H2O+0.1% TFA, B=acetonitrile+0.1% TFA; flow=1 mL/min. Gradient: t=0-1 min 0% B, t=1-2 min 0-30% B, t=2-17 min 30-40% B, t=17-17.1 min 40-100% B, t=17.1-18 min 100% B, t=18-23 min 0% B. Relative peak area represents raw peak area (mAU*s) normalized to raw peak area of the warfarin internal standard. Values recorded are averages of three independent reactions and error bars display standard error of the mean. Values were fitted to first-order kinetics using GraphPad Prism 9 software. A positive control experiment was performed under identical conditions with known substrate 4-nitrophenyl-β-D-glucuronide (Sigma Aldrich) to confirm enzyme activity.

[3] = tested on: Panc-1 pancreatic cancer cell line; test: CellTiter Glo viability assay, Panc-1; type: cell-based; conditions: for IC50: Homo sapiens, PANC-1, 48 h; for toxicity without the β-glucuronidase enzyme: Panc-1, up to 100 μM
Protocol: as §1, §2

[4] = 1H NMR kinetic analysis of elimination of PAB-PhQ; type: physicochemical; conditions: 25° C., moderately acidic methanolic solution
Protocol: Kinetics of the release of PhQ 4, from PAB-PhQ 7 were monitored by ^1H NMR at 25° C. Analysis was performed in MeOD due to poor solubility of the compound in H2O. To form the active eliminating species, Boc-PAB-PhQ 6 was dissolved in dichloromethane/trifluoroacetic acid 4:1 at 0° C. and stirred for 30 min, upon which the reaction appeared complete by thin-layer chromatography. Product 7 was dried in vacuo before being dissolved in MeOD. Basicity of the solution was altered by addition of triethylamine (drops). pH was estimated using pH paper. pH values are indicative only as analysis is performed in MeOD. Elimination rates were determined from the aromatic region. Kinetics were measured by monitoring the integral of one peak, normalised to number of protons present (i.e. integral of 1H), divided by the total integral of the aromatic region (δ=6.2-8.6 ppm, i.e. integral of 12H). Analysis was performed using Mestrenova 8.0 processing software and rate constants were calculated using GraphPad Prism v8.0 software.

[5] = Penicillin-G amidase mediated kinetic analysis of elimination at physiological pH; type: physicochemical; conditions: pH 7.4, 37° C.
Protocol: Stocks of 2-phenylacetyl-para-aminobenzyl ketol were made up in DMF at a concentration of 10 mM. For a reaction, 17.5 μL of ketol stock was added to 17.5 μL of a 10 mM stock of internal standard in DMF and 310 μL of PBS at pH 7.4. To initiate a reaction, 5 μL of a suspension of Penicillin-G amidase (PenG, Sigma Aldrich enzyme 76427, 5-10 U/mg) was added. In control samples 5 μL of PBS was added in place of the enzyme. Test and control samples were then incubated at 37° C. with shaking. At the recorded time points, 20 μL aliquots of the reactions were analysed by HPLC (254 nm, ThermoFisher U3000). HPLC column: Phenomenex Kinetex C18, 5 μm, 50×4.6 mm, 100 Å; flow=1 mL/min. Gradient and solvent system for assay with 2-phenylacetyl-PAB-PhQ 21: A=H2O, B=acetonitrile, t=0-1 min 0% B, t=1-10 min 0-100% B, t=10-11 min 0% B. Gradient and solvent system for assay with 2-phenylacetyl-PAB-BL 22 and 2-phenylacetyl-PAB-DN 23: A=H2O+0.1% formic acid, B=acetonitrile+0.1% formic acid, t=0-1 min 0% B, t=1-10 min 0-40% B, t=10-16 min 40-50% B, t=16.1 min 100% B, t=16.1-18 min 100% B, t=18-20 min 0% B. Peaks were identified by LCMS analysis and comparison with pure compounds. Values described represent peak area (mAU*min) divided by peak area of internal standard. Recorded values are averages of three independent reactions and error bars display standard error of the mean. Fitting was performed using GraphPad Prism 8 software. Rate and half-life measurements were calculated by consumption of intermediate para-aminobenzyl ketol and formation of product quinone.

[6] = pH-rate aqueous kinetic analysis of fragmentation (para-aminobenzyl ketols); type: physicochemical; conditions: for pH at which elimination rate peaks / half-life at 0.155 mM: citrate-phosphate buffer; for half-life at 0.155 mM: pH 7, pH 7, read-out: release t1/2 (converted)
Protocol: pH-rate analysis was performed by adaption of the PenG assay. To obtain deprotected para-aminobenzyl ketol species, 2-phenylacetyl protected ketol was dissolved in PBS with 33% DMF to a concentration of 3.3 mM. 20 μL of a stock solution of PenG was added to 600 μL of this stock and incubated for 20 min at 37° C. 20 μL of a 100 mM stock of internal standard in DMSO was added. Reactions were then set up immediately. For a reaction, 10 μL of the amino-benzyl ketol/standard stock was added to 190 μL of citrate-phosphate buffer at the specified pH to obtain an aqueous solution containing 1.8% DMSO. Test samples were incubated at 37° C. with shaking. At the recorded time points, 20 μL aliquots of the reactions were analysed by HPLC (254 nm, ThermoFisher U3000). HPLC conditions: column Phenomenex Kinetex C18 5 μm, 50×4.6 mm, 100 Å; solvent system A=H2O, B=acetonitrile; flow=1 mL/min. Gradient and solvent system for assay with PAB-PhQ 7: A=H2O, B=acetonitrile, t=0-1 min 0% B, t=1-10 min 0-100% B, t=10-11 min 0% B. Gradient and solvent system for assay with PAB-BL 10 and PAB-DN 18: A=H2O+0.1% formic acid, B=acetonitrile+0.1% formic acid, t=0-1 min 0% B, t=1-10 min 0-40% B, t=10-16 min 40-50% B, t=16.1 min 100% B, t=16.1-18 min 100% B, t=18-20 min 0% B. Values described represent peak area (mAU*min) divided by peak area of internal standard. Where necessary, peaks were deconvoluted using Origin fitting software. Recorded values are averages of three independent reactions and error bars display standard error of the mean. Values were fitted using GraphPad Prism software. Rate and half-life measurements were calculated based on disappearance of the para-aminobenzyl ketol species.

MOLM-13 = test: Viability assay with small molecule prodrugs, Trypan Blue exclusion, MOLM-13; type: cell-based; conditions: 5 μM, 24 h timepoint
Protocol: For assays assessing cytotoxicity of β-lapachone versus small molecule dipeptide prodrugs, suspension cells were plated into 24 well plates at a density of 2.5×10^5 cells/mL in 240 μL. Serial dilutions of compound were made up in PBS. 60 μL of each stock of either PBS, or compound in PBS was added to the cells to achieve the desired final concentration. After the specified incubation time, toxicity was assessed by counting of live cells using the Trypan Blue exclusion method with a Countess II Automated Cell Counter (ThermoFisher Scientific) according to the manufacturer's instructions. Cell viability was determined by division of average live cell number of treated wells by average live cell number for control wells treated with PBS only. Values recorded are the mean of three repeat wells, with error bars representing the standard error of the mean for each concentration tested. IC50 values were calculated using GraphPad Prism software.

## COc1cc(O[C@@H]2O[C@H](C(=O)O)[C@@H](O)[C@H](O)[C@H]2O)ccc1CC1(O)C(=O)C2=C(OC(C)(C)CC2)c2ccccc21 (single isomer, unassigned) [Compound 37d]
[1]
  toxicity without the β-glucuronidase enzyme: no toxicity
  IC50: 2.99 µM
[2]; pH 6-10 (FIG. 7)
  release rate compared with other derivatives: orders of magnitude faster release
[3]
  IC50: 0.904 µM
  toxicity without the β-glucuronidase enzyme: no toxicity

## Nc1ccc(CC2(O)C(=O)c3ccccc3-c3ccccc32)cc1 (centres unmarked) [Compound 7, 10-(4-aminobenzyl)-10-hydroxyphenanthren-9(10H)-one]
[4]; first-order fit
  rate of consumption of 7 (kobs): 6.18±0.12×10^−5 s^−1
[4]; from 7
  rate of formation of product 4 (kobs): 6.55±0.22×10^−5 s^−1
[4]; release of 4 from 7
  time to complete release: ≤ 20 h
[5]; intermediate 7 generated from 21
  elimination of 7, rate kobs: 9.72 (±2.88)×10^−6 s^−1
[6]; 37° C.
  pH at which elimination rate peaks: 5-6

## CC1(C)CCC2=C(O1)c1ccccc1C(O)(Cc1ccc(N)cc1)C2=O (centres unmarked) [Compound 10, 6-(4-aminobenzyl)-6-hydroxy-2,2-dimethyl-2,3,4,6-tetrahydro-5H-benzo[h]chromen-5-one]
[6]; 37° C.
  pH at which elimination rate peaks: 3
[6]; additional repeats of the experiments
  half-life at 0.155 mM: 542 days
[6]; initially reported value
  half-life at 0.155 mM: 32.9 days
[6]; pH 7, initially reported value
  release rate kobs: 2.4e-07 s⁻¹
[6]; pH≥6 within 72 h, 37° C.
  elimination resulting in formation of 1: Negligible elimination

## O=C(Cc1ccccc1)Nc1ccc(CC2(O)C(=O)c3ccccc3-c3ccccc32)cc1 (centres unmarked) [Compound 21, 2-Phenyl-acetyl-para-aminobenzyl phenanthrene-ketol]
[5]; following addition of Penicillin-G amidase to 21
  formation of PhQ 4, rate kobs: 1.15 (±0.66)×10^−5 s^−1
[5]; no Penicillin-G amidase
  stability without added enzyme: stable

## CC(=O)Oc1c2c(c3ccccc3c1OC(C)=O)OC(C)(C)CC2 [Compound 29, 2,2-dimethyl-3,4-dihydro-2H-benzo[h]chromene-5,6-diyl diacetate]
MOLM-13
  toxicity to MOLM-13: complete cell death

## CC1(C)CCC2=C(O1)c1ccccc1C(O)(Cc1cc(F)c(O[C@@H]3O[C@H](C(=O)O)[C@@H](O)[C@H](O)[C@H]3O)c(F)c1)C2=O (stereo partly drawn) [Compound 37b, (2S,3S,4S,5R,6S)-6-(2,6-difluoro-4-((6-hydroxy-2,2-dimethyl-5-oxo-3,4,5,6-tetrahydro-2H-benzo[h]chromen-6-yl)methyl)phenoxy)-3,4,5-trihydroxytetrahydro-2H-pyran-2-carboxylic acid]
[1]
  toxicity without the β-glucuronidase enzyme: no toxicity
  IC50: 24.4 µM
[2]; pH 3-7 (FIG. 6)
  elimination rate compared with plain PHB linker: faster
[2]; pH 3-8.5 (FIG. 7)
  elimination rate compared with plain PHB linker 37a: faster
[2]; pH 7, 37° C., after β-glucuronide deprotection, first experiments
  release rate of β-lapachone, kobs: 2.68e-06 s⁻¹
[2]; pH 7, additional fragmentation experiments
  quinone release rate, kobs: 4.2e-06 s⁻¹
[2]; pH 8-10 (FIG. 6)
  elimination rate compared with plain PHB linker: slower
[2]; pH 9-10 (FIG. 7)
  elimination rate compared with plain PHB linker 37a: slower
[3]
  IC50: 13.4 µM
  toxicity without the β-glucuronidase enzyme: no toxicity

## para-Aminobenzyl dunni-ketol [Compound 18]
[6]; 37° C., range of pH values
  elimination rate compared with PAB-BL 10: very similar rate
